Experimental findings from patent US12303511B2 (priority 2018, dated 2025) are described below.

Assay [1] relates to Gpr139−/− mice. The following applies: Gpr139−/− mice vs wild-type, multiple drug doses.
Assay [2] concerns transgenic C. elegans (tgMOR) that express mammalian MOR. The following applies: in vivo.
For assay [3], the system named is Gpr139−/− mice. Briefly: Conditioned place preference paradigm. Format: in vivo. The following applies: Gpr139−/− mice vs wild-type.

SMILES strings stand for the structures.

For the compound `CN1CC[C@]23c4c5ccc(O)c4O[C@H]2[C@@H](O)C=C[C@H]3[C@H]1C5` [morphine], in the assay with Gpr139−/− mice [1], the “analgesia, maximal response and duration of effect” value is recorded as “significantly increased morphine analgesia”. Further, in assay [2], the “time to maximum paralysis and recovery” value is “reached maximum paralysis and recovered more quickly”. The rewarding effects entry with Gpr139−/− mice [3] was “substantially augmented responses”.
